According to ChEMBL document CHEMBL1124008, “Synthesis and antifolate activity of 5-methyl-5,10-dideaza analogues of aminopterin and folic acid and an alternative synthesis of 5,10-dideazatetrahydrofolic acid, a potent inhibitor of glycinamide ribonucleotide formyltransferase” (J Med Chem, 1988):

How the values were obtained:
Dihydrofolate reductase [1] = molecular target: Dihydrofolate reductase (Lactobacillus casei, UniProt P00381); assay: Evaluated for inhibition of dihydrofolate reductase (DHFR) from Lactobacillus casei; parameters: species or system Lacticaseibacillus casei
Chain of Dihydrofolate reductase (Lactobacillus casei, UniProt P00381) (P00381 whole entry): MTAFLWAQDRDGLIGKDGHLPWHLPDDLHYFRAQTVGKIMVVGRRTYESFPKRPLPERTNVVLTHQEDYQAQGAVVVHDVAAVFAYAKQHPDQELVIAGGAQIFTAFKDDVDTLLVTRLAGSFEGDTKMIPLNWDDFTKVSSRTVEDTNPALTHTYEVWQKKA

Dihydrofolate reductase [2] = molecular target: T1, Dihydrofolate reductase (Mus musculus, UniProt P00375); assay: Evaluated for inhibition of dihydrofolate reductase (DHFR) isolated from L1210 cells; type: cell-based
T1 sequence (P00375 whole entry): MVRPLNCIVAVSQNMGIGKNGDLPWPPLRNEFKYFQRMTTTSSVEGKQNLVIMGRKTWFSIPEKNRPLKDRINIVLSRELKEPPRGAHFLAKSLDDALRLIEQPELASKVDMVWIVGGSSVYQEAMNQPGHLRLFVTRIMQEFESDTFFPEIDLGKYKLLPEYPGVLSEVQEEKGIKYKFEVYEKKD

L1210 [3] = assay: Efflux characteristics in the L1210 cells was evaluated; type: functional, Mus musculus
Thymidylate synthase = molecular target: T2, Thymidylate synthase (Lactobacillus casei, UniProt P00469); assay: Evaluated for inhibition of thymidylate synthase (TS) from Lactobacillus casei; parameters: species or system Lacticaseibacillus casei
T2 sequence (P00469 whole entry): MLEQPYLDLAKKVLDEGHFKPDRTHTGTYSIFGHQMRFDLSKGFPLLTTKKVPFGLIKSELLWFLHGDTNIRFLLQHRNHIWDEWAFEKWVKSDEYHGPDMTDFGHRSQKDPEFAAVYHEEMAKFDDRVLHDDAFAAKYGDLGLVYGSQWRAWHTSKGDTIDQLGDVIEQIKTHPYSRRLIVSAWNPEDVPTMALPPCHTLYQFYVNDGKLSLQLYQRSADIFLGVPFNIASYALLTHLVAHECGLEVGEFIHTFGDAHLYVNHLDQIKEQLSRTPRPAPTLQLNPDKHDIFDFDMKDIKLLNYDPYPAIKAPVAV

L1210 [4] = assay: Evaluated for cell growth inhibition of L1210 cells in cultures; type: functional, cell-based; conditions: Mus musculus
L1210 [5] = assay: Influx characteristics toward L1210 cells was evaluated; type: functional, cell-based; conditions: Mus musculus
[6] = molecular target: Trifunctional purine biosynthetic protein adenosine-3 (Homo sapiens) (UniProt P22102); assay: Inhibition of GAR transformylase from mammalian Manca
Chain of Trifunctional purine biosynthetic protein adenosine-3 (Homo sapiens) (P22102 whole entry, looked up): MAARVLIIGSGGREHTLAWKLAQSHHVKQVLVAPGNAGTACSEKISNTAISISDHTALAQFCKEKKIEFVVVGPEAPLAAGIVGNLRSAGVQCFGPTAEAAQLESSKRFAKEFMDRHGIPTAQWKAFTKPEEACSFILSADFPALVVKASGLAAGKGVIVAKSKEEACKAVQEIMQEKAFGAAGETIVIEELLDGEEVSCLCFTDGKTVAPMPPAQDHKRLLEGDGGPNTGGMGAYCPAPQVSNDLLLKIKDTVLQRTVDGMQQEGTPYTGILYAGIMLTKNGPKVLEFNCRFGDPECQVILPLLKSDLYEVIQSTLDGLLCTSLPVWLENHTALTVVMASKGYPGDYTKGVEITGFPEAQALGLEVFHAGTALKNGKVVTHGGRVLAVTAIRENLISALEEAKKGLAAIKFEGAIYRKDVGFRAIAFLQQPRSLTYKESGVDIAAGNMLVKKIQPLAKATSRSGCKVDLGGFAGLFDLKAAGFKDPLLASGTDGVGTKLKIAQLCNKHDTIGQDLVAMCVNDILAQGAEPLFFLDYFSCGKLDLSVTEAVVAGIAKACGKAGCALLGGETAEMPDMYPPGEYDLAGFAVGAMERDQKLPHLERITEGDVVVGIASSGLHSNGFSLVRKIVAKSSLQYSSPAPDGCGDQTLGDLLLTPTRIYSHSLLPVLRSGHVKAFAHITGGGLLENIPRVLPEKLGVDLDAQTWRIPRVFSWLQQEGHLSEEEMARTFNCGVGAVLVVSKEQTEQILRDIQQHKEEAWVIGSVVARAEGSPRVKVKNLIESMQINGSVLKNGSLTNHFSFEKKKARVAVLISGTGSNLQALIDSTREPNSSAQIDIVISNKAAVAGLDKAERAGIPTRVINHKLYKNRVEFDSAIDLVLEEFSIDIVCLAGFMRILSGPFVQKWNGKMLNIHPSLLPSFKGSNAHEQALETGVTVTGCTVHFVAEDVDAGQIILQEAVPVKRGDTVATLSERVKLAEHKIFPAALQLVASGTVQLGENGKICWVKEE

[7] = molecular target: T3, Trifunctional purine biosynthetic protein adenosine-3 (Mus musculus, UniProt Q64737); assay: Inhibition of GAR transformylase from mammalian L1210 cells; type: cell-based
T3 sequence (Q64737 whole entry): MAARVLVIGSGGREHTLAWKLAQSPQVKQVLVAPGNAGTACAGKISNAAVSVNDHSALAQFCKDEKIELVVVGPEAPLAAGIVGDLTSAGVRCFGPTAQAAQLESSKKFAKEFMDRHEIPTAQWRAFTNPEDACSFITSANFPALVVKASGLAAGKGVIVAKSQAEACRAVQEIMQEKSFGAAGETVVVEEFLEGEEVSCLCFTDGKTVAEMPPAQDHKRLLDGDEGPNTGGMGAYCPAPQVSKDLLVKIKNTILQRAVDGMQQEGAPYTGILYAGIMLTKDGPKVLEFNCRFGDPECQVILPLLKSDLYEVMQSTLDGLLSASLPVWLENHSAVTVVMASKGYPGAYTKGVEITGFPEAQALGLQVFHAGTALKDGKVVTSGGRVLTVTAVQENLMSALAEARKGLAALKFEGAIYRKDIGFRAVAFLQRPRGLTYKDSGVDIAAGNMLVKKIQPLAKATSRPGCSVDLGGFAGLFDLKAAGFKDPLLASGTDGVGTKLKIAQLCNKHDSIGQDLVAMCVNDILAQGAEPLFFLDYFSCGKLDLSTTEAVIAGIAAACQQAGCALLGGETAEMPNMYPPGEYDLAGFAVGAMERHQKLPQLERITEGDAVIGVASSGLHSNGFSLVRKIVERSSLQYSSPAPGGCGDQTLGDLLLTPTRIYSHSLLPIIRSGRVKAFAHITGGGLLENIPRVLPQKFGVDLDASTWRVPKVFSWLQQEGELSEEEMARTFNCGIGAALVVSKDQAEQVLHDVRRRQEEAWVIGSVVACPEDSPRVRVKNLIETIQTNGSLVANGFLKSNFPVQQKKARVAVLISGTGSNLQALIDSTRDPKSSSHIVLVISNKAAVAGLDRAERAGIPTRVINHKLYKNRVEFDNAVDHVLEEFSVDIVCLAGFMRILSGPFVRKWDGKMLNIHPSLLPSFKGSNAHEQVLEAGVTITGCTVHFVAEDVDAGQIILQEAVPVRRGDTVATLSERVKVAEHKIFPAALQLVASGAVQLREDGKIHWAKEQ

SMILES	IC50 (Dihydrofolate reductase [1])	Ki (Dihydrofolate reductase [2])	k (L1210 [3])	IC50 (Thymidylate synthase)	IC50 (L1210 [4])	Km (L1210 [5])	IC50 [6]	IC50 [7]
Cc1c(CCc2ccc(C(=O)NC(CCC(=O)O)C(=O)O)cc2)cnc2nc(N)nc(N)c12 (stereo not given)	0.023 µM	0.0283 nM	0.5 min⁻¹	2.9 µM	0.0232 µM	1.25 µM	–	–
CC1c2c(O)nc(N)nc2NCC1CCc1ccc(C(=O)NC(CCC(=O)O)C(=O)O)cc1 (racemic)	> 100 µM	> 1 nM	–	> 100 µM	0.49 µM	1.62 µM	14 µM	80 µM
CN(Cc1cnc2nc(N)nc(N)c2n1)c1ccc(C(=O)N[C@@H](CCC(=O)O)C(=O)O)cc1 [METHOTREXATE]	–	–	0.22 min⁻¹	–	0.0021 µM	3.95 µM	–	–
CCC1c2c(O)nc(N)nc2NCC1CCc1ccc(C(=O)NC(CCC(=O)O)C(=O)O)cc1 (racemic)	19 µM	> 1 nM	–	> 100 µM	0.0572 µM	2.48 µM	0.5 µM	0.5 µM
Cc1c(CCc2ccc(C(=O)NC(CCC(=O)O)C(=O)O)cc2)cnc2nc(N)[nH]c(=O)c12 (stereo not given)	16 µM	> 1 nM	–	44 µM	–	–	> 20 µM	> 20 µM
Cc1c(CCc2ccc(C(=O)NC(CCC(=O)O)C(=O)O)cc2)cnc2nc(N)nc(O)c12 (stereo not given)	–	–	–	–	36.4 µM	18.8 µM	–	–
